Measurements published in US9975869B2 (Sphaera Pharma Pvt. Ltd., priority 2013, dated 2018).

System: AMPK
Test: AMPK activation potential, cell based ELISA (Phospho-AMPKα Thr172) in Hep G2 cells
Settings: 10 nm concentration; Hep G2 liver cells; % activity with DMSO control as 100%; 30 min incubation for Epicatechin analogs
Protocol: Testing of Compounds for Their AMPK Activation Potential
AMPK activation potential of the compounds was evaluated using cell based ELISA. Hepatoma (Hep G2) liver cells were maintained in a T 75 culture flask-containing 25 mM DMEM+10% fetal calf serum. The cells were maintained in a T 75 culture flask-containing medium (DMEM+10% fetal calf serum). On reaching a confluence of 70 to 80%, the cells were seeded in a 96 well plate at a density of 40,000 cells per well in 25 mM DMEM+10% FCS medium. The plates were then incubated at 37° C. with 5% CO2 for 24 hours. Various concentrations of drugs were prepared in DMSO and diluted to required concentration with the medium and incubated at 37° C. with 5% CO2 for 30 min and 1 h for Epicatechin analogs and 11-BHP analogs respectively. Metformin was used as positive control. Cells were fixed with 4% formaldehyde for 30 minutes at room temperature and washed three times with PBS containing 0.1% Triton X-100. Endogenous peroxidase was quenched with 1% H2O2 in PBS-T (0.1% Tween 20) for 30 minutes and washed three times in PBS-T. Cells were blocked with 1% BSA in PBS-T for 1 hour. The cells were incubated with 1:1000 dilution primary antibody (Phospho-AMPKα (Thr172) Rabbit mAb, Cell Signaling in PBS-T containing 5% BSA at 4° C. overnight. The cells were then washed three times with PBS-T for 5 minutes and incubated with 1:1000 dilution secondary antibody (Anti-rabbit IgG, HRP-linked Antibody, Cell Signaling) in PBS-T with 1% BSA for 1 hour at RT. Cells were washed three times with PBS-T for 5 minutes The cells were incubated with 100 μl TMB substrate solution for 30 minutes and the reaction was stopped with 100 μl of 2N H2SO4. Then the plate was read at 450 nm using ELISA plate reader and absorbance recorded. % activity was calculated using DMSO control as 100%. All compounds of the present invention, as exemplified and encompassed are found to be active.

Structure (SMILES) | % pAMPK(at 10 nm)
CN(C)C(=O)O[C@@H]1Cc2c(O)cc(O)cc2O[C@@H]1c1ccc(O)c(O)c1 [Compound 1047, (2R,3R)-2-(3,4-dihydroxyphenyl)-5,7-dihydroxychroman-3-yl dimethylcarbamate] | 100%
COC(=O)Oc1cc(OC(=O)OC)c2c(c1)O[C@H](c1ccc(OC(=O)OCc3ccccc3)c(OC(=O)OCc3ccccc3)c1)[C@H](O)C2 [Compound 1066, dibenzyl (4-((2R,3R)-3-hydroxy-5,7-bis((methoxycarbonyl)oxy)chroman-2-yl)-1,2-phenylene) bis(carbonate)] | 139%
CC(C)OC(=O)O[C@@H]1Cc2c(O)cc(O)cc2O[C@@H]1c1ccc(O)c(O)c1 [Compound 1055, (2R,3R)-2-(3,4-dihydroxyphenyl)-5,7-dihydroxychroman-3-yl isopropyl carbonate] | 105%
CCCO[C@@H]1Cc2ccc(O)cc2OC1c1cccc(O)c1 (stereo in doubt) [Compound 1030, 2-(3-hydroxyphenyl)-3-propoxychroman-7-ol] | 94%
COC(=O)Oc1cc(OC(=O)OC)c2c(c1)O[C@H](c1ccc(O)c(O)c1)[C@H](O)C2 [Compound 1058, (2R,3R)-2-(3,4-dihydroxyphenyl)-3-hydroxychromane-5,7-diyl dimethyl bis(carbonate)] | 117%
Oc1ccc2c(c1)OC(c1ccc(F)c(O)c1)[C@H](O)C2 (stereo in doubt) [Compound 1029, 2-(4-fluoro-3-hydroxyphenyl)chromane-3,7-diol] | 93%
O=C(NCc1ccccc1)Oc1cc(OC(=O)NCc2ccccc2)c2c(c1)O[C@H](c1ccc(OC(=O)NCc3ccccc3)c(OC(=O)NCc3ccccc3)c1)[C@H](O)C2 [Compound 1051, 4-((2R,3R)-5,7-bis((benzylcarbamoyl)oxy)-3-hydroxychroman-2-yl)-1,2-phenylene bis(benzylcarbamate)] | 85%
CCCCCCCC(=O)Oc1ccc([C@H]2Oc3cc(O)cc(O)c3C[C@H]2O)cc1O [Compound 1043, 2-hydroxy-4-((2R,3R)-3,5,7-trihydroxychroman-2-yl)phenyl octanoate] | 98%
Oc1cccc([C@H]2Oc3cccc(O)c3C[C@H]2O)c1 (racemic) [Compound 1005, Cis (±) 2-(3-hydroxyphenyl)chroman-3,5-diol] | 102%
C[n+]1cccc(C(=O)O[C@@H]2Cc3c(O)cc(O)cc3O[C@@H]2c2ccc(O)c(O)c2)c1 [Compound 1041, 3-((((2R,3R)-2-(3,4-dihydroxyphenyl)-5,7-dihydroxychroman-3-yl)oxy)carbonyl)-1-methylpyridin-1-ium] | 88%
Oc1ccc([C@H]2Oc3cccc(O)c3C[C@H]2O)cc1 (racemic) [Compound 1006, Cis (±) 2-(4-hydroxyphenyl)chroman-3,5-diol] | 103%
CC(C)COC(=O)Oc1cc(OC(=O)OCC(C)C)c2c(c1)O[C@H](c1ccc(OC(=O)OCc3ccccc3)c(OC(=O)OCc3ccccc3)c1)[C@H](O)C2 [Compound 1060, dibenzyl (4-((2R,3R)-3-hydroxy-5,7-bis((isobutoxycarbonyl)oxy)chroman-2-yl)-1,2-phenylene) bis(carbonate)] | 110%
COc1cccc([C@H]2Oc3cc(OC)ccc3C[C@H]2O)c1 (racemic) [Compound 1019] | 101%
CCCCCCCC(=O)Oc1cc(O)cc2c1C[C@@H](O)[C@@H](c1ccc(O)c(O)c1)O2 [Compound 1064, (2R,3R)-2-(3,4-dihydroxyphenyl)-3,7-dihydroxychroman-5-yl octanoate] | 110%
O=C(O[C@@H]1Cc2c(O)cc(O)cc2O[C@@H]1c1ccc(O)c(O)c1)c1cccnc1 [Compound 1071, (2R,3R)-2-(3,4-dihydroxyphenyl)-5,7-dihydroxychroman-3-yl nicotinate] | 102%
CC(C)(C)COC(=O)O[C@@H]1Cc2c(O)cc(O)cc2O[C@@H]1c1ccc(O)c(O)c1 [Compound 1045, (2R,3R)-2-(3,4-dihydroxyphenyl)-5,7-dihydroxychroman-3-yl neopentyl carbonate] | 105%
COc1ccc2c(c1)O[C@H](c1cccc(O)c1)[C@H](O)C2 (racemic) [Compound 1018] | 100%

Structure (SMILES) | % pAMPK(at 10 nm)
CC(C)(C)OC(=O)O[C@@H]1Cc2c(O)cc(O)cc2O[C@@H]1c1ccc(O)c(O)c1 [Compound 1073, tert-butyl ((2R,3R)-2-(3,4-dihydroxyphenyl)-5,7-dihydroxychroman-3-yl) carbonate] | 109%
[2H]C1([2H])c2c(O)cc(O)cc2O[C@H](c2ccc(O)c(O)c2)[C@@H]1O [Compound 1036, (2R,3R)-2-(3,4-dihydroxyphenyl)chromane-4,4-d2-3,5,7-triol] | 105%
CC(C)(C)COC(=O)Oc1cc([C@H]2Oc3cc(O)cc(O)c3C[C@H]2O)ccc1O [Compound 1042, 2-hydroxy-5-((2R,3R)-3,5,7-trihydroxychroman-2-yl)phenyl neopentyl carbonate] | 95%
Oc1cccc([C@H]2Oc3cc(O)ccc3C[C@H]2O)c1 (racemic) [Compound 1007, Cis (±) 2-(3-hydroxyphenyl)chroman-3,7-diol] | 113%
CC(C)COC(=O)Oc1cc(OC(=O)OCC(C)C)c2c(c1)O[C@H](c1ccc(O)c(O)c1)[C@H](O)C2 [Compound 1050, (2R,3R)-2-(3,4-dihydroxyphenyl)-3-hydroxychromane-5,7-diyl diisobutyl bis(carbonate)] | 91%
Oc1cc(O)c2c(c1)O[C@H](c1ccc(O)c(O)c1F)[C@H](O)C2 (racemic) [Compound 1032, Cis (±) 2-(2-fluoro-3,4-dihydroxyphenyl)chroman-3,5,7-triol] | 104%
Oc1ccc([C@H]2Oc3cc(O)cc(O)c3C[C@H]2O)cc1 (racemic) [Compound 1008, Cis (±) 2-(4-hydroxyphenyl)chroman-3,5,7-triol] | 103%
Cc1c([C@H]2Oc3cc(O)cc(O)c3C[C@H]2O)ccc(O)c1O (racemic) [Compound 1031, Cis (±) 2-(3,4-dihydroxy-2-methylphenyl)chroman-3,5,7-triol] | 101%
COc1cccc([C@H]2Oc3cc(O)ccc3C[C@H]2O)c1 (racemic) [Compound 1017] | 110%
Oc1cc(O)c2c(c1)O[C@H](c1ccccc1)[C@H](O)C2 (racemic) [Compound 1015, Cis (±) 2-phenylchroman-3,5,7-triol] | 119%
CC(C)(C)COC(=O)Oc1ccc([C@H]2Oc3cc(O)cc(O)c3C[C@H]2O)cc1OC(=O)OCC(C)(C)C [Compound 1072, dineopentyl (4-((2R,3R)-3,5,7-trihydroxychroman-2-yl)-1,2-phenylene) bis(carbonate)] | 99%
O=C(OCc1ccccc1)Oc1cc(OC(=O)OCc2ccccc2)c2c(c1)O[C@H](c1ccc(OC(=O)OCc3ccccc3)c(OC(=O)OCc3ccccc3)c1)[C@H](O)C2 [Compound 1052, dibenzyl (4-((2R,3R)-5,7-bis(((benzyloxy)carbonyl)oxy)-3-hydroxychroman-2-yl)-1,2-phenylene) bis(carbonate)] | 103%
Oc1cc(O)c2c(c1)O[C@H](c1cc(O)c(O)cc1F)[C@H](O)C2 (racemic) [Compound 1033, Cis (±) 2-(2-fluoro-4,5-dihydroxyphenyl)chromane-3,5,7-triol] | 107%
COC(=O)CNC(=O)O[C@@H]1Cc2c(O)cc(O)cc2O[C@@H]1c1ccc(O)c(O)c1 [Compound 1056, methyl ((((2R,3R)-2-(3,4-dihydroxyphenyl)-5,7-dihydroxychroman-3-yl)oxy)carbonyl)glycinate] | 112%
Cc1ccc([C@H]2Oc3cc(O)ccc3C[C@H]2O)cc1O (stereo in doubt) [Compound 1027, 2-(3-hydroxy-4-methylphenyl)chromane-3,7-diol] | 94%
CCCO[C@@H]1Cc2ccc(O)cc2O[C@@H]1c1cccc(OC)c1 [Compound 1068, (2R,3R)-2-(3-methoxyphenyl)-3-propoxychroman-7-ol] | 90%
CC(C)NC(=O)O[C@@H]1Cc2c(O)cc(O)cc2O[C@@H]1c1ccc(O)c(O)c1 [Compound 1046, (2R,3R)-2-(3,4-dihydroxyphenyl)-5,7-dihydroxychroman-3-yl isopropylcarbamate] | 101%
